Target: T1, αvβ6 (Homo sapiens, UniProt P06756+P18564)
T1 construct: endogenous in cells; host or cells: HT-29 cells
Experiment: αvβ6 cell adhesion inhibition test (HT-29 cells on recombinant human LAP protein)
Format: cell-based
Conditions: recombinant human LAP coating, 200 μM MnCl2, 1 hour, read-out: IC50 (rate of inhibition of cell adhesion, αvβ6)
Experimental: Test Example 2 was performed by partially modifying the method of Henderson et al. (Nat Med., 19 (12), 1617-24, 2013). In Test Example 2, the same reagents as in Test Example 1 were used unless otherwise specified.
Recombinant human LAP protein (manufactured by R&D Systems, Inc., 246-LP-025) was prepared at […] with PBS, dispensed at 100 μL/well to a 96-well plate, and left standing overnight. The plate was washed with HBSS, then subjected to blocking treatment with DMEM containing 1% BSA, and used as a coated plate in the adhesion test.
HT-29 cells cultured in McCoy's 5A medium (manufactured by Thermo Fisher Scientific, Inc., 16600) containing 10% FBS and 1% penicillin/streptomycin/amphotericin B were recovered and suspended in DMEM containing 0.1% BSA and 200 μM MnCl2 to prepare a cell suspension. A test compound was added thereto.
The cell suspension of 5×10^5 cells/mL containing the test compound was added at 100 μL/well to the coated plate and left standing for 1 hour in a 5% CO2 incubator (37° C.). One hour later, the supernatant was removed, and the plate was washed with HBSS containing 200 μM MnCl2. The cells that adhered to each well in the plate were stained with crystal violet, and the cells were lysed, followed by absorbance measurement. Inhibition without substrate coating was defined as 100% inhibition, and inhibition when DMSO was added instead of the test compound was defined as 0% inhibition. The rate of inhibition of cell adhesion by the test compound was calculated according to the following expression.
Rate of inhibition of cell adhesion (%)=[1−{(Absorbance in the case of adding the test compound)−(Absorbance without substrate coating)}/{(Absorbance in the case of adding DMS)−(Absorbance without substrate coating)}]×100
An IC50 value was calculated from the rate of inhibition of cell adhesion by the test compound. A: IC50<3 nM, B: 3 nM≤IC50<10 nM, C: 10 nM≤IC50<30 nM, D: 30 nM≤IC50<100 nM, or E: IC50≥100 nM.

T1 sequence (P06756 31-889 limits assumed): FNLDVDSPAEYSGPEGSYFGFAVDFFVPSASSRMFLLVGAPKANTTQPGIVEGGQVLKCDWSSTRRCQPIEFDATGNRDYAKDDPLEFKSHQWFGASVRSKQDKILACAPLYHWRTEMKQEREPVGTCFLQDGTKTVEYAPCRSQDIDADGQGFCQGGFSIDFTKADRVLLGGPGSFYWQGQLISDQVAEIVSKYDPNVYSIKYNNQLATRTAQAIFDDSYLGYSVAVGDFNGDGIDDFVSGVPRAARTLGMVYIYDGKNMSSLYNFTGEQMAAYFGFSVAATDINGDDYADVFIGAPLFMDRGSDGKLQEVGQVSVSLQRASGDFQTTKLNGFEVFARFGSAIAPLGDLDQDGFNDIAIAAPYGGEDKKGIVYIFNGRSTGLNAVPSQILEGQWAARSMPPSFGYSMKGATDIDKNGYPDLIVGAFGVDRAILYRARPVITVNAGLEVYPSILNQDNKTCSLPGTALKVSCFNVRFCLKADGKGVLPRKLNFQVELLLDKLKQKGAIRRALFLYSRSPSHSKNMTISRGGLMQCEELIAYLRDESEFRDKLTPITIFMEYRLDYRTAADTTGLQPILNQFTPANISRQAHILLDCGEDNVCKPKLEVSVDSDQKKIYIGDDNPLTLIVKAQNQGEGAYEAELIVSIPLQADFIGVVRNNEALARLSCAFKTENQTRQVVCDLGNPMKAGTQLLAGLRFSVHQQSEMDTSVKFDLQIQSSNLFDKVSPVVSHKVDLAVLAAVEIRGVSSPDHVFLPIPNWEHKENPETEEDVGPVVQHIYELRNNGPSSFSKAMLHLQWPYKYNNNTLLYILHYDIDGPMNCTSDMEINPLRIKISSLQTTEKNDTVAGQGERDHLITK
T1 sequence (P06756 891-1048 limits assumed): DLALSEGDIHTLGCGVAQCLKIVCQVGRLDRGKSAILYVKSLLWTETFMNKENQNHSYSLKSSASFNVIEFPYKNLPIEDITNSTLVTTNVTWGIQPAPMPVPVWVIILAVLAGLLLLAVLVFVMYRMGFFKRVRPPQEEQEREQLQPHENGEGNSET
T1 sequence (P18564 22-788): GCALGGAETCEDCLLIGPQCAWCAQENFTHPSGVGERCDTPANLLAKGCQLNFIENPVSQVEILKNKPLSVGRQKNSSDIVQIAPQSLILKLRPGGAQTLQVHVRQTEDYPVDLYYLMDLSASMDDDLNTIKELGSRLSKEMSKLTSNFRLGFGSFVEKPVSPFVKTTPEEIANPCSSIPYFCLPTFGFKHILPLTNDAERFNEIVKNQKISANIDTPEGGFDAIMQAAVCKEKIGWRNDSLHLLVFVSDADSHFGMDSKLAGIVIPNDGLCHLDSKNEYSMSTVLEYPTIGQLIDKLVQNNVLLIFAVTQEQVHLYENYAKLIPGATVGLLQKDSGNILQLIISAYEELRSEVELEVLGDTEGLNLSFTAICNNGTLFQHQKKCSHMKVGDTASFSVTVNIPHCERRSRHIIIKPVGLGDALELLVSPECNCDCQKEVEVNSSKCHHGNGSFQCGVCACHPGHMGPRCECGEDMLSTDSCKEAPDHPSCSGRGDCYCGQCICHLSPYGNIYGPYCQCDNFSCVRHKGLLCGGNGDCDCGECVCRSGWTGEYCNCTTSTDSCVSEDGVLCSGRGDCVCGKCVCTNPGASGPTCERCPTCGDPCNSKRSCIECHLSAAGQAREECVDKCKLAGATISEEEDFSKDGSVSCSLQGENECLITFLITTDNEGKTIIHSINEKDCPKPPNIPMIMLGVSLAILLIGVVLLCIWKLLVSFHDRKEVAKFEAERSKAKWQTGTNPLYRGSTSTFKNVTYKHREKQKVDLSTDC

Structure (SMILES) | IC50 [nM]
O=C(O)C[C@H](NC(=O)CNC(=O)c1cc(NC2=NCC(F)CN2)c2cn[nH]c2c1)c1cc(Cl)cc(C(F)(F)F)c1 (stereo partly drawn) [Example 1-(b), (3S)-3-(3-chloro-5-(trifluoromethyl)phenyl)-3-(2-(4-((5-fluoro-1,4,5,6-tetrahydropyrimidin-2-yl)amino)-1H-indazole-6-carboxamido)acetamido)propanoic acid] | < 3
O=C(O)C[C@H](NC(=O)CNC(=O)c1cc(NC2=NCC(F)CN2)c2cn[nH]c2c1)c1cc(Br)cc(C(F)(F)F)c1 (stereo partly drawn) [Example 2-(b), (3S)-3-(3-bromo-5-(trifluoromethyl)phenyl)-3-(2-(4-((5-fluoro-1,4,5,6-tetrahydropyrimidin-2-yl)amino)-1H-indazole-6-carboxamido)acetamido)propanoic acid] | < 3
O=C(O)C[C@H](NC(=O)CNC(=O)c1cc(NC2=NCC(F)CN2)c2cn[nH]c2c1)c1cc(I)cc(C(F)(F)F)c1 (stereo partly drawn) [Example 3-(b), (3S)-3-(2-(4-((5-fluoro-1,4,5,6-tetrahydropyrimidin-2-yl)amino)-1H-indazole-6-carboxamido)acetamido)-3-(3-iodo-5-(trifluoromethyl)phenyl)propanoic acid] | < 3
Cc1cc([C@H](CC(=O)O)NC(=O)CNC(=O)c2cc(NC3=NCC(F)CN3)c3cn[nH]c3c2)cc(C(F)(F)F)c1 (stereo partly drawn) [Example 4-(b), (3S)-3-(2-(4-((5-fluoro-1,4,5,6-tetrahydropyrimidin-2-yl)amino)-1H-indazole-6-carboxamido)acetamido)-3-(3-methyl-5-(trifluoromethyl)phenyl)propanoic acid] | < 3
COc1cc([C@H](CC(=O)O)NC(=O)CNC(=O)c2cc(NC3=NCC(F)CN3)c3cn[nH]c3c2)cc(C(F)(F)F)c1 (stereo partly drawn) [Example 5-(b), (3S)-3-(2-(4-((5-fluoro-1,4,5,6-tetrahydropyrimidin-2-yl)amino)-1H-indazole-6-carboxamido)acetamido)-3-(3-methoxy-5-(trifluoromethyl)phenyl)propanoic acid] | < 3
O=C(O)C[C@H](NC(=O)CNC(=O)c1cc(NC2=NCC(F)CN2)c2cn[nH]c2c1)c1cc(F)cc(C(F)(F)F)c1 (stereo partly drawn) [Example 6-(b), (3S)-3-(2-(4-((5-fluoro-1,4,5,6-tetrahydropyrimidin-2-yl)amino)-1H-indazole-6-carboxamido)acetamido)-3-(3-fluoro-5-(trifluoromethyl)phenyl)propanoic acid] | 3 to 10
O=C(O)C[C@H](NC(=O)CNC(=O)c1cc(NC2=NCC(F)CN2)c2cn[nH]c2c1)c1cc(C(F)(F)F)cc(C(F)(F)F)c1 (stereo partly drawn) [Example 7-(b), (3S)-3-(3,5-bis(trifluoromethyl)phenyl)-3-(2-(4-((5-fluoro-1,4,5,6-tetrahydropyrimidin-2-yl)amino)-1H-indazole-6-carboxamido)acetamido)propanoic acid] | < 3
O=C(O)C[C@H](NC(=O)CNC(=O)c1cc(NC2=NCC(F)CN2)c2cn[nH]c2c1)c1cc(-n2cccn2)cc(C(F)(F)F)c1 (stereo partly drawn) [Example 8-(b), (3S)-3-(3-(1H-pyrazol-1-yl)-5-(trifluoromethyl)phenyl)-3-(2-(4-((5-fluoro-1,4,5,6-tetrahydropyrimidin-2-yl)amino)-1H-indazole-6-carboxamido)acetamido)propanoic acid] | < 3
O=C(O)C[C@H](NC(=O)CNC(=O)c1cc(NC2=NCC(F)CN2)c2cn[nH]c2c1)c1cccc(C(F)(F)F)c1F (stereo partly drawn) [Example 9-(b), (3S)-3-(2-(4-((5-fluoro-1,4,5,6-tetrahydropyrimidin-2-yl)amino)-1H-indazole-6-carboxamido)acetamido)-3-(2-fluoro-3-(trifluoromethyl)phenyl)propanoic acid] | < 3
O=C(O)C[C@H](NC(=O)CNC(=O)c1cc(NC2=NCC(F)CN2)c2cn[nH]c2c1)c1cccc(C(F)(F)F)c1Cl (stereo partly drawn) [Example 10-(b), (3S)-3-(2-chloro-3-(trifluoromethyl)phenyl)-3-(2-(4-((5-fluoro-1,4,5,6-tetrahydropyrimidin-2-yl)amino)-1H-indazole-6-carboxamido)acetamido)propanoic acid] | ≥ 100
O=C(O)C[C@H](NC(=O)CNC(=O)c1cc(NC2=NCC(F)CN2)c2cn[nH]c2c1)c1cc(C(F)(F)F)ccc1F (stereo partly drawn) [Example 11-(b), (3S)-3-(2-(4-((5-fluoro-1,4,5,6-tetrahydropyrimidin-2-yl)amino)-1H-indazole-6-carboxamido)acetamido)-3-(2-fluoro-5-(trifluoromethyl)phenyl)propanoic acid] | < 3
O=C(O)C[C@H](NC(=O)CNC(=O)c1cc(NC2=NCC(F)CN2)c2cn[nH]c2c1)c1cc(C(F)(F)F)ccc1Cl (stereo partly drawn) [Example 12-(b), (3S)-3-(2-chloro-5-(trifluoromethyl)phenyl)-3-(2-(4-((5-fluoro-1,4,5,6-tetrahydropyrimidin-2-yl)amino)-1H-indazole-6-carboxamido)acetamido)propanoic acid] | 3 to 10
O=C(O)C[C@H](NC(=O)CNC(=O)c1cc(NC2=NCC(F)CN2)c2cn[nH]c2c1)c1ccc(F)c(C(F)(F)F)c1 (stereo partly drawn) [Example 13-(b), (3S)-3-(2-(4-((5-fluoro-1,4,5,6-tetrahydropyrimidin-2-yl)amino)-1H-indazole-6-carboxamido)acetamido)-3-(4-fluoro-3-(trifluoromethyl)phenyl)propanoic acid] | < 3
Cc1ccc([C@H](CC(=O)O)NC(=O)CNC(=O)c2cc(NC3=NCC(F)CN3)c3cn[nH]c3c2)cc1C(F)(F)F (stereo partly drawn) [Example 14-(b), (3S)-3-(2-(4-((5-fluoro-1,4,5,6-tetrahydropyrimidin-2-yl)amino)-1H-indazole-6-carboxamido)acetamido)-3-(4-methyl-3-(trifluoromethyl)phenyl)propanoic acid] | < 3
O=C(O)C[C@H](NC(=O)CNC(=O)c1cc(NC2=NCC(F)CN2)c2cn[nH]c2c1)c1cc(Cl)c(F)c(C(F)(F)F)c1 (stereo partly drawn) [Example 15-(b), (3S)-3-(3-chloro-4-fluoro-5-(trifluoromethyl)phenyl)-3-(2-(4-((5-fluoro-1,4,5,6-tetrahydropyrimidin-2-yl)amino)-1H-indazole-6-carboxamido)acetamido)propanoic acid] | < 3
COc1ccc([C@H](CC(=O)O)NC(=O)CNC(=O)c2cc(NC3=NCC(F)CN3)c3cn[nH]c3c2)cc1Br (stereo partly drawn) [Example 16-(b), (3S)-3-(3-bromo-4-methoxyphenyl)-3-(2-(4-((5-fluoro-1,4,5,6-tetrahydropyrimidin-2-yl)amino)-1H-indazole-6-carboxamido)acetamido)propanoic acid] | < 3
O=C(O)C[C@H](NC(=O)CNC(=O)c1cc(NC2=NCC(F)CN2)c2cn[nH]c2c1)c1cc(Cl)cc(Cl)c1 (stereo partly drawn) [Example 17-(b), (3S)-3-(3,5-dichlorophenyl)-3-(2-(4-((5-fluoro-1,4,5,6-tetrahydropyrimidin-2-yl)amino)-1H-indazole-6-carboxamido)acetamido)propanoic acid] | 3 to 10
O=C(O)C[C@H](NC(=O)CNC(=O)c1cc(NC2=NCC(F)CN2)c2cn[nH]c2c1)c1cc(Cl)cc(Br)c1 (stereo partly drawn) [Example 18-(b), (3S)-3-(3-bromo-5-chlorophenyl)-3-(2-(4-((5-fluoro-1,4,5,6-tetrahydropyrimidin-2-yl)amino)-1H-indazole-6-carboxamido)acetamido)propanoic acid] | < 3
O=C(O)C[C@H](NC(=O)CNC(=O)c1cc(NC2=NCC(F)CN2)c2cn[nH]c2c1)c1cc(Br)cc(Br)c1 (stereo partly drawn) [Example 19-(b), (3S)-3-(3,5-dibromophenyl)-3-(2-(4-((5-fluoro-1,4,5,6-tetrahydropyrimidin-2-yl)amino)-1H-indazole-6-carboxamido)acetamido)propanoic acid] | < 3
O=C(O)C[C@H](NC(=O)CNC(=O)c1cc(NC2=NCC(F)CN2)c2cn[nH]c2c1)c1cc(Br)cc(I)c1 (stereo partly drawn) [Example 20-(b), (3S)-3-(3-bromo-5-iodophenyl)-3-(2-(4-((5-fluoro-1,4,5,6-tetrahydropyrimidin-2-yl)amino)-1H-indazole-6-carboxamido)acetamido)propanoic acid] | < 3
O=C(O)C[C@H](NC(=O)CNC(=O)c1cc(NC2=NCC(F)CN2)c2cn[nH]c2c1)c1cc(Cl)cc(I)c1 (stereo partly drawn) [Example 21-(b), (3S)-3-(3-chloro-5-iodophenyl)-3-(2-(4-((5-fluoro-1,4,5,6-tetrahydropyrimidin-2-yl)amino)-1H-indazole-6-carboxamido)acetamido)propanoic acid] | < 3
O=C(O)C[C@H](NC(=O)CNC(=O)c1cc(NC2=NCC(F)CN2)c2cn[nH]c2c1)c1cc(Cl)ccc1F (stereo partly drawn) [Example 22-(b), (3S)-3-(5-chloro-2-fluorophenyl)-3-(2-(4-((5-fluoro-1,4,5,6-tetrahydropyrimidin-2-yl)amino)-1H-indazole-6-carboxamido)acetamido)propanoic acid] | 3 to 10
